Experimental findings from publication PMC8229862, “Elaiophylin Is a Potent Hsp90/ Cdc37 Protein Interface Inhibitor with K-Ras Nanocluster Selectivity” (Biomolecules, 2021) are described below.

In assay [1] the target is T1, Hsp90 (N-terminal domain) (Homo sapiens, UniProt P07900).
T1 construct: gene HSP90AA1; N-terminal fragment of Hsp90 (NRL-N-Hsp90); with Cdc37
Nature of the assay: lysate-based split Renilla luciferase Hsp90/Cdc37 interaction assay; supported by co-immunoprecipitation. It counts as biochemical.

The target of a further assay is T2, Hsp90α (Homo sapiens, UniProt P07900).
T2 construct: gene HSP90AA1; endogenous Hsp90 in MDA-MB-231 or MIA PaCa-2 cells; with Cdc37
Nature of the assay: co-immunoprecipitation of Cdc37 with Hsp90α from cells treated with […] for […] h. It counts as cell-based.

Molecules are shown by their SMILES.

A word on the IC50: it is the concentration that gives 50% inhibition. Higher therefore signals weaker potency. `CC[C@@H]1[C@@H](C)O[C@@](O)([C@@H](C)[C@H](O)[C@H](C)[C@H]2OC(=O)/C=C/C=C/[C@H](C)[C@@H]([C@@H](C)[C@@H](O)[C@H](C)[C@@]3(O)C[C@@H](O[C@H]4C[C@H](O)[C@H](O)[C@H](C)O4)[C@H](CC)[C@@H](C)O3)OC(=O)/C=C/C=C/[C@@H]2C)C[C@H]1O[C@H]1C[C@H](O)[C@H](O)[C@H](C)O1` [elaiophylin]: the IC50 in assay [1] worked out at 11 ± 4 µM.
`C/C1=C\[C@H](C)C[C@H](C)[C@H](Cc2cnco2)OC(=O)/C(C)=C/[C@H](C)C[C@H](C)[C@H](Cc2cnco2)OC1=O` [conglobatin A]: at Hsp90α, the “co-immunoprecipitation of Cdc37 with Hsp90α from cells treated with 10 μM for 24” value was “Both elaiophylin and conglobatin A treatment reduced the amount of co-precipitated Cdc37”.
